Structures can show the parent of a compound that is named as a salt.
Tests used:
[1] = target: Recombinant human MAO-B (Homo sapiens (Human), UniProt P27338); experiment: Inhibition of human recombinant MAO-B; assay type: biochemical; settings: benzylamine 100 μM
How it was run: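 Recombinant human MAO-B used as enzyme source (0.06 mg/mL, stated concentration). Run as for the human SSAO/VAP-1 assay, except benzylamine substrate at 100 μM.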

[2] = system: bleomycin induced lung fibrosis; experiment: Bleomycin induced lung fibrosis model; assay type: in vivo; settings: mouse, intranasal bleomycin, 15 mg/kg
Experimental: Bleomycin induced lung fibrosis in rodents is a widely accepted experimental model to determine the anti-fibrotic activity of therapeutic agents.
Fibrosis is induced by intranasal administered of bleomycin sulphate at a dose of 0.05 U/mouse in a total volume of 50 uL PBS (see Corbel, M., et al Inhibition of bleomycin-induced pulmonary fibrosis in mice by the matrix metalloproteinase inhibitor batimastat J Pathol. 2001 April; 193(4):538-45.) Compound 12 is given 0.1-100 mg/Kg throughout the period of the experimental procedure or 7 days after bleomycin administration and then throughout the entire study.
Formalin fixed lungs sections stained with haematoxylin and eosin are assessed for fibrosis as per the scale outlined by Ashcroft et al (Simple method of estimating severity of pulmonary fibrosis on a numerical scale J Clin Pathol 1988; 41:467-470).

[3] = system: myocardial infarction induced fibrosis; experiment: Myocardial infarction induced fibrosis (carotic ligation) model; assay type: in vivo, mouse; settings: mice, 0.1-100 mg/Kg once a day oral gavage, FIG. 5
Source text: Carotic ligation is a widely accepted experimental model to induce cardiac fibrosis and to determine the anti-fibrotic activity of therapeutic agents.
In mice, the chest is opened via a left thoracotomy. The left coronary artery is identified visually using a stereo microscope, and a 7-0 suture is placed around the artery 1-2 mm below the left auricle. Permanent occlusion of the left coronary artery resulted from its ligation with the suture. Myocardial ischemia was confirmed by pallor in heart color and ST-segment elevation. (see Parajuli et al. Phosphatase PTEN is critically involved in post-myocardial infarction remodeling through the Akt/interleukin-10 signaling pathway Basic Res Cardiol (2012) 107:248).
Mice were subjected to sham or carotic ligation surgery. At 24 hrs post-surgery, echocardiography was performed on the mice. Mice were treated with compound 25 0.1-100 mg/Kg once a day for 21 (7 days after carotic ligation) or 28 days or saline as vehicle controls by oral gavage. At the end of the experiment, echocardiography was repeated to assess left ventricular function and remodeling. Then mice were euthanized for heart collection. Each heart was photographed and fixed with 10% formalin. Hearts were sectioned for Masson's trichrome stain to measure fibrosis (See FIG. 5).

[4] = system: primary fibroblasts from confirmed cases of IPF; experiment: Collagen cross-link formation in in vitro fibroblastic foci model of IPF; assay type: cell-based, human; settings: TGF-β1 stimulated foci, six weeks culture, FIGS. 7a and 7b
Source text: The lung tissue of patients with idiopathic pulmonary fibrosis (IPF) is characterised by dense collections of myofibroblasts and extracellular matrix (ECM) termed ‘fibroblastic foci’. Using a novel in vitro model of fibroblastic foci (Jones et al., AJRCCM 191; 2015:A4912) the formation of lysyl oxidase (LOX) mediated collagen cross-links and the effects of the nonselective LOX inhibitor β-aminopropionitrile (BAPN) as well lysyl oxidase like-2 (LOXL2)-selective inhibitors were investigated.
Cultures of primary fibroblasts were grown out from clinical diagnostic biopsies of fibrotic lung and stored in liquid nitrogen. […]
To quantify collagen cross-links (Robins Biochem Soc Trans 2007; 35(5): 849-852; Saito et al Anal. Biochem. 1997; 253: 26-32; Sims, Avery & Bailey Methods in Molecular Biology 2000; vol 139: 11-26), cultures were treated with potassium borohydride to stabilise the reducible immature cross-links, and hydrolysed in 6N HCl at 100° C. for 16 hr. Total collagen content was assessed by hydroxyproline assay. Immature cross-links were assessed by LC/MS/MS and mature pyridinoline cross-links by ELISA. Cross-link data is expressed as moles of cross-link per mole collagen.

[5] = system: STAM mice, NASH liver fibrosis; experiment: Streptozotocin and high fat diet induced liver fibrosis (STAM model); assay type: in vivo, mouse; settings: daily oral gavage 10-30 mg/kg, FIG. 6
Experimental: High fat/carbohydrate diet induced liver fibrosis is the most common reason for liver dysfunction and ultimately liver failure. NASH is induced in male mice by a single subcutaneous injection of 200 μg streptozotocin solution 2 days after birth and feeding with high fat diet after 4 weeks of age (STAM™ model).
LOXL2 inhibitor compound 112 was administered by daily oral gavage at doses between 10-30 mg/kg 8 weeks after streptozotocin application. Mice were sacrificed after NASH had been established and whole blood samples were taken via cardiac puncture. Liver samples were collected and washed with cold saline. Liver weight was measured. The left lateral, right and caudate lobes of livers were snap frozen in liquid nitrogen and stored at −80° C. For HE staining, sections were cut from paraffin blocks of liver tissue prefixed in Bouin's solution and stained with Lillie-Mayer's Hematoxylin and eosin solution. NAFLD Activity score (NAS) was calculated according to the criteria of Kleiner (Kleiner D E. et al., Design and validation of a histological scoring system for nonalcoholic fatty liver disease. Hepatology, 2005; 41:1313). To visualize collagen deposition, Bouin's fixed liver sections were stained using picro-Sirius red solution and the area of fibrosis was quantified (See FIG. 6).

Sequence of Recombinant human MAO-B (P27338 whole entry): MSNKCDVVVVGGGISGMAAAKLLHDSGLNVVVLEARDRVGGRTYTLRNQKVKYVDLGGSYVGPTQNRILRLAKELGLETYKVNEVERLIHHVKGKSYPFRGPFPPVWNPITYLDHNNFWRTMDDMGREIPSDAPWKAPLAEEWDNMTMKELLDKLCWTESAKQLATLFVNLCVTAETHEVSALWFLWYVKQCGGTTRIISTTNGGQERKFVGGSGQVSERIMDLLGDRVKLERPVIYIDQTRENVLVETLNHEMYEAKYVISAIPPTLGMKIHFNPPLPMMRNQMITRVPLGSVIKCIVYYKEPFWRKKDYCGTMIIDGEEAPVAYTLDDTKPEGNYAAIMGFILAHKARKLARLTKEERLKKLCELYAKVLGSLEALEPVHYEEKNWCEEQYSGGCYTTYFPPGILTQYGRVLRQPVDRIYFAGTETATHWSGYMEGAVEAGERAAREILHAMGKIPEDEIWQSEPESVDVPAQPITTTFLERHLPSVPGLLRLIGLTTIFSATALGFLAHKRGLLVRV

| SMILES | IC50 [1] [nM] | Ashcroft score in the lungs [2] | fibrosis after carotic ligation (Masson's trichrome stain) [3] | collagen cross-link formation (immature and mature cross-links) [4] | liver fibrosis (picro-Sirius red area of fibrosis) [5] |
| --- | --- | --- | --- | --- | --- |
| CCOC(=O)c1ccc2c(c1)c(-c1cccc(S(=O)(=O)N(C)C)c1)c(C)n2C/C(F)=C/CN [Compound 12, (Z)-ethyl 1-(4-amino-2-fluorobut-2-en-1-yl)-3-(3-(N,N-dimethylsulfamoyl)phenyl)-2-methyl-1H-indole-5-carboxylate] | > 3000 | significantly reduced |  |  |  |
| Cc1c(-c2cccc(S(=O)(=O)N(C)C)c2)c2ncccc2n1C/C(F)=C/CN [Compound 25, (Z)-3-(1-(4-amino-2-fluorobut-2-en-1-yl)-2-methyl-1H-pyrrolo[3,2-b]pyridin-3-yl)-N,N-dimethylbenzenesulfonamide Dihydrochloride] | > 3000 |  | reduce fibrosis |  |  |
| Cc1ccc2c(n1)c(-c1cccc(S(C)(=O)=O)c1)c(C)n2C/C(F)=C/CN [Compound 112, (Z)-4-(2,5-dimethyl-3-(3-(methylsulfonyl)phenyl)-1H-pyrrolo[3,2-b]pyridin-1-yl)-3-fluorobut-2-en-1-amine Dihydrochloride] | > 3000 |  |  | reduced cross-link formation in a concentration dependent manner | reduce lilver fibrosis |

From patent US10717733B2, “Haloallylamine indole and azaindole derivative inhibitors of lysyl oxidases and uses thereof” (PHARMAXIS LTD., priority 2016, dated 2020)
